Measured values: ChEMBL document CHEMBL3352305, “Podoverine A--a novel microtubule destabilizing natural product from the Podophyllum species” (Bioorg Med Chem, 2014)
Calls of active or inactive are those of the source. The calls are words filed in the database; no cut-off is given here.

Tests used:
[1] = test system: HeLa; test: Mitotic arrest in human HeLa cells assessed as increase in accumulation at G2/M phase at 1 uM for 24 hrs by PI staining/FACS analysis; type: functional, cell-based
[2] = test system: HeLa; test: Cell cycle arrest in human HeLa cells assessed as <2N stage DNA at 1 uM for 20 hrs by PI staining/FACS analysis (reference value: 2.19 no unit); type: functional
[3] = test system: HeLa; test: Cell cycle arrest in human HeLa cells assessed as 2N stage DNA at 1 uM for 20 hrs by PI staining/FACS analysis (reference value: 58 no unit); type: functional
[4] = test system: HeLa; test: Cell cycle arrest in human HeLa cells assessed as 4N stage DNA at 1 uM for 20 hrs by PI staining/FACS analysis (reference value: 24.8 no unit); type: functional
[5] = test system: HeLa; test: Cell cycle arrest in human HeLa cells assessed as >4N stage DNA at 1 uM for 20 hrs by PI staining/FACS analysis (reference value: 14.2 no unit); type: functional
[6] = Cell cycle arrest in human PC3 cells assessed as <2N stage DNA at 1 uM for 20 hrs by PI staining/FACS analysis (reference value: 0.59 no unit); type: functional, cell-based; details: PC-3
[7] = Cell cycle arrest in human PC3 cells assessed as 2N stage DNA at 1 uM for 20 hrs by PI staining/FACS analysis (reference value: 42 no unit); type: functional, cell-based; details: PC-3
[8] = Cell cycle arrest in human PC3 cells assessed as 4N stage DNA at 1 uM for 20 hrs by PI staining/FACS analysis (Rvb =34.4 no unit); type: functional, cell-based; details: PC-3
[9] = Cell cycle arrest in human PC3 cells assessed as >4N stage DNA at 1 uM for 20 hrs by PI staining/FACS analysis (Rvb =23 no unit); type: functional, cell-based; details: PC-3
[10] = test system: MCF7; test: Cell cycle arrest in human MCF7 cells assessed as <2N stage DNA at 1 uM for 20 hrs by PI staining/FACS analysis (reference value: 0.39 no unit); type: functional
[11] = test system: MCF7; test: Cell cycle arrest in human MCF7 cells assessed as 2N stage DNA at 1 uM for 20 hrs by PI staining/FACS analysis (reference value: 31.6 no unit); type: functional
[12] = test system: MCF7; test: Cell cycle arrest in human MCF7 cells assessed as 4N stage DNA at 1 uM for 20 hrs by PI staining/FACS analysis (Rvb =40.8 no unit); type: functional
[13] = test system: MCF7; test: Cell cycle arrest in human MCF7 cells assessed as >4N stage DNA at 1 uM for 20 hrs by PI staining/FACS analysis (Rvb =23.8 no unit); type: functional
[14] = test system: BSC-1; test: Mitotic arrest in African green monkey BSC1 cells assessed as accumulation of round cells with intense stained tubulin and DNA structures at 3 uM for 20 hrs by FITC/TRITC staining; type: functional, cell-based; details: Chlorocebus aethiops
[15] = test system: HeLa; test: Mitotic arrest in human HeLa cells assessed as accumulation of round cells with intense stained tubulin and DNA structures at 3 uM for 20 hrs by FITC/TRITC staining; type: functional, cell-based
[16] = test system: HeLa; test: Mitotic arrest in human HeLa cells assessed as increase in accumulation at G2/M phase at 5 uM for 24 hrs by PI staining/FACS analysis; type: functional, cell-based
[17] = test system: HeLa; test: Cytotoxicity against human HeLa cells assessed as inhibition of cell viability after 24 hrs by WST1 assay; type: functional, cell-based
[18] = test system: HeLa; test: Mitotic arrest in human HeLa cells assessed as structure at 3 uM for 60 mins and measured after 20 hrs of washout by FITC staining; type: functional, cell-based
[19] = test system: HeLa; test: Mitotic arrest in human HeLa cells assessed as structure at 3 uM for 60 mins and measured after 20 hrs of washout and applied 3 uM after washout by FITC staining; type: functional, cell-based
[20] = target: Tubulin (Sus scrofa) (UniProt P02554+P02550); test: Inhibition of porcine brain tubulin polymerization at 50 uM by turbidity assay
Sequence of Tubulin (Sus scrofa) (P02550 whole entry, looked up): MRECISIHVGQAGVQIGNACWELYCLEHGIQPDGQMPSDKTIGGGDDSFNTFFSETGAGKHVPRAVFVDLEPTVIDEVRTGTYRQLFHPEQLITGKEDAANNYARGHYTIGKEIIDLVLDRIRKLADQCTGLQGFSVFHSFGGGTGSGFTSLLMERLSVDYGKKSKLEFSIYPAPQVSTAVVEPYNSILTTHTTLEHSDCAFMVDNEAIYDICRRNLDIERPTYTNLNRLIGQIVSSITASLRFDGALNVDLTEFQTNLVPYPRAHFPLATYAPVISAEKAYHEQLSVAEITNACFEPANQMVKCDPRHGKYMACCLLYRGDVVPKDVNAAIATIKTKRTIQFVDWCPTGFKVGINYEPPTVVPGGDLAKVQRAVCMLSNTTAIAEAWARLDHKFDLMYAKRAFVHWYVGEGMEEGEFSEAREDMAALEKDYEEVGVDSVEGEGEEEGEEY
Sequence of Tubulin (Sus scrofa) (P02554 whole entry, looked up): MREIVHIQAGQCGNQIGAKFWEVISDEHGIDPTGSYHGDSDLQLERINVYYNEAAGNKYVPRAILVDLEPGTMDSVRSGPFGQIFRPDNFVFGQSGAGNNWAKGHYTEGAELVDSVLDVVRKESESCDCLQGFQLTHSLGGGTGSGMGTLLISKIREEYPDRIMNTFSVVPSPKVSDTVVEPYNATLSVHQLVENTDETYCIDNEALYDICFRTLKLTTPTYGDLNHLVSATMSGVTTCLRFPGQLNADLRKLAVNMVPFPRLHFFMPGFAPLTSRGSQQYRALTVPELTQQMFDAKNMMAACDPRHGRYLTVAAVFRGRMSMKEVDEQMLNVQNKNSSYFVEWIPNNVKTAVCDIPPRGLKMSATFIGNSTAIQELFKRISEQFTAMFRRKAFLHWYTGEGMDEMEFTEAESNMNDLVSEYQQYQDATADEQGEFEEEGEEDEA

[21] = test system: BSC-1; test: Inhibition of repolymerization of microtubule in cold treated African green monkey BSC1 cells at 5 uM for 20 hrs by DAPI staining; type: cell-based; details: Chlorocebus aethiops
[22] = target: T1, Tubulin (Homo sapiens) (UniProt P68371+Q9H4B7+P0DPH7+P68366+Q13509+Q71U36+P04350+Q3ZCM7+P07437+P68363+Q9BQE3+Q6PEY2+Q13885+Q9BVA1+Q9BUF5); test: Displacement of colchicine from tubulin (unknown origin) by FITC staining; type: protein-complex assay
[23] = target: T1, Tubulin (Homo sapiens); test: (§1) Displacement of BODIPY-FL-vinblastine from tubulin (unknown origin); type: protein-complex assay
[24] = target: Tubulin; test: as §1; type: protein-complex assay, Homo sapiens
[25] = test system: HeLa; test: Cell cycle arrest in human HeLa cells assessed as <2N stage DNA at 5 uM for 20 hrs by PI staining/FACS analysis (reference value: 2.19 no unit); type: functional
[26] = test system: HeLa; test: Cell cycle arrest in human HeLa cells assessed as 2N stage DNA at 5 uM for 20 hrs by PI staining/FACS analysis (reference value: 58 no unit); type: functional
[27] = test system: HeLa; test: Cell cycle arrest in human HeLa cells assessed as 4N stage DNA at 5 uM for 20 hrs by PI staining/FACS analysis (reference value: 24.8 no unit); type: functional
[28] = test system: HeLa; test: Cell cycle arrest in human HeLa cells assessed as >4N stage DNA at 5 uM for 20 hrs by PI staining/FACS analysis (reference value: 14.2 no unit); type: functional
[29] = Cell cycle arrest in human PC3 cells assessed as <2N stage DNA at 5 uM for 20 hrs by PI staining/FACS analysis (reference value: 0.59 no unit); type: functional, cell-based; details: PC-3
[30] = Cell cycle arrest in human PC3 cells assessed as 2N stage DNA at 5 uM for 20 hrs by PI staining/FACS analysis (reference value: 42 no unit); type: functional, cell-based; details: PC-3
[31] = Cell cycle arrest in human PC3 cells assessed as 4N stage DNA at 5 uM for 20 hrs by PI staining/FACS analysis (Rvb =34.4 no unit); type: functional, cell-based; details: PC-3
[32] = Cell cycle arrest in human PC3 cells assessed as >4N stage DNA at 5 uM for 20 hrs by PI staining/FACS analysis (Rvb =23 no unit); type: functional, cell-based; details: PC-3
[33] = test system: MCF7; test: Cell cycle arrest in human MCF7 cells assessed as <2N stage DNA at 5 uM for 20 hrs by PI staining/FACS analysis (reference value: 0.39 no unit); type: functional
[34] = test system: MCF7; test: Cell cycle arrest in human MCF7 cells assessed as 2N stage DNA at 5 uM for 20 hrs by PI staining/FACS analysis (reference value: 31.6 no unit); type: functional
[35] = test system: MCF7; test: Cell cycle arrest in human MCF7 cells assessed as 4N stage DNA at 5 uM for 20 hrs by PI staining/FACS analysis (Rvb =40.8 no unit); type: functional
[36] = test system: MCF7; test: Cell cycle arrest in human MCF7 cells assessed as >4N stage DNA at 5 uM for 20 hrs by PI staining/FACS analysis (Rvb =23.8 no unit); type: functional
[37] = test system: HeLa; test: Mitotic arrest in human HeLa cells assessed as cells devoid of mitotic spindles at 3 uM for 20 hrs by FITC/TRITC staining; type: functional, cell-based
[38] = test system: HeLa; test: Mitotic arrest in human HeLa cells assessed as cells with condensed chromosomes not aligned to metaphase plate at 3 uM for 20 hrs by FITC/TRITC staining; type: functional, cell-based

## COC(=O)Nc1nc2cc(C(=O)c3cccs3)ccc2[nH]1 [NOCODAZOLE]
[1]
  Activity: Active
[2]
  Flu intensity: 9.75
[3]
  Flu intensity: 8.61
[4]
  Flu intensity: 64.7
[5]
  Flu intensity: 16.9
[6]
  Flu intensity: 10.7
[7]
  Flu intensity: 7.64
[8]
  Flu intensity: 51.7
[9]
  Flu intensity: 29.4
[10]
  Flu intensity: 0.72
[11]
  Flu intensity: 9.16
[12]
  Flu intensity: 57.5
[13]
  Flu intensity: 30.7

## COc1c(-c2ccc(O)c(O)c2CC=C(C)C)oc2cc(O)cc(O)c2c1=O
[14]
  Activity: Active
[15]
  Activity: Active
[16]
  Activity: Active
[17]
  IC50: 790 nM
  inhibition: Dose-dependent effect
[18]
  Activity: inactive
[19]
  Activity: Active
[20]
  inhibition: Active
[21]
  inhibition: Active
[22]
  Activity: inactive
[23]
  inhibition: Dose-dependent effect
[24]
  EC50: 14.7 µM
[2]
  Flu intensity: 5.6
[3]
  Flu intensity: 40.4
[4]
  Flu intensity: 40.2
[5]
  Flu intensity: 13.8
[25]
  Flu intensity: 9.84
[26]
  Flu intensity: 9.6
[27]
  Flu intensity: 58.2
[28]
  Flu intensity: 21.8
[6]
  Flu intensity: 2.23
[7]
  Flu intensity: 27.6
[8]
  Flu intensity: 42
[9]
  Flu intensity: 26.5
[29]
  Flu intensity: 12.6
[30]
  Flu intensity: 9.24
[31]
  Flu intensity: 47.5
[32]
  Flu intensity: 30.8
[10]
  Flu intensity: 1.07
[11]
  Flu intensity: 32
[12]
  Flu intensity: 36.3
[13]
  Flu intensity: 29.6
[33]
  Flu intensity: 2
[34]
  Flu intensity: 9.57
[35]
  Flu intensity: 61.5
[36]
  Flu intensity: 27
[37]
  Activity: Active
[38]
  Activity: Active
